Data taken from patent US10557853B2 (priority 2012, dated 2020).
“And” between values parts separate entries of the source, which are not always exact repeats. Equal values may be shown once. “Also recorded” adds a separate entry of the source.

Tests used:
[1] = target: T1, GST-M1-1 (Homo sapiens, UniProt P09488); assay: Displacement (inhibitor screening) assay with sensor 14-GST-M1-1 complex; format: binding; conditions: 50 μM drug, sensor 14 90 nM, GST M1-1 90 nM
T1 construct: purchased Oxford Biomedical Research (a second source is given: Israel Structural Proteomics Center, recombinant)
T1 sequence (P09488 2-218 limits assumed): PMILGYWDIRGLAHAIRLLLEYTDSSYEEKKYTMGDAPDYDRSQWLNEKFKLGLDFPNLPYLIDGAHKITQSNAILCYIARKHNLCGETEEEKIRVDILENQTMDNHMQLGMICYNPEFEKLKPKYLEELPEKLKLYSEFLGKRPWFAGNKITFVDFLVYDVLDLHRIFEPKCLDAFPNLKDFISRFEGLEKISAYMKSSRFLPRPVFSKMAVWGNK
Procedure: A possible advantage of such systems, however, is that they abrogate the need for using labelled substrates and following the reaction kinetics. Such sensors could, therefore, complement other label-free enzyme assays that rely on indicator displacement mechanisms.
The sensor 14-GST-M1-1 complex was treated with a random library of known drugs.

[2] = test system: dsDNA; assay: Fluorescence response to double-stranded DNA; format: binding; conditions: for fluorescence response to addition of dsDNA (FIG. 21e): 100 nM sensor or TO, 400 nM dsDNA, phosphate buffer 5 mM pH 6.5
Procedure: Different 10 derivatives (Table 3) were incubated with increasing concentrations of double-stranded DNA and compared their fluorescence emission prior to and after their incubation in PBS buffer, pH=6.5 (FIG. 9).

[3] = test system: MDA-MB-231 cancer cells, overexpressing GST-P1-1; assay: Live cell fluorescence imaging, MDA-MB-231; format: cell-based; conditions: 2 μM, 15 minutes at 37° C.
Procedure: GST-P1-1 is a cytosolic protein, whereas DNA is located in the nucleouse.
MDA-MB-231 cells were maintained in RPMI supplemented with 10% FBS, L-glutamine, and antibiotics. […] Cell images were analyzed using imageJ.

[4] = target: T1, GST-M1-1; assay: GST sensing: fluorescence response to GST-M1-1; format: binding; conditions: 100 nM sensor
Procedure: (§1) The most efficient TOPI sensors were identified (FIG. 12) by measuring the fluorescence of the six sensors (100 nM) in the absence and presence of their targets (90 nM) (FIG. 13).
(§2) Based on the obtained binding constants (FIG. 15), a concentration of 100 nM sensor was chosen for GST sensing. This concentration should ensure strong binding and a high S/N ratio.
Two different mixtures of GST isoforms were prepared: one that contained all the GST isoforms (20 nM of each GST, in total 160 nM) (A1-1k2-2, P1-1, M1-1, T1-1, O1-1, Z1-1, and K1-1) and the second mixture contained all the GST isoforms except GST-M1-1.

[5] = target: T2, GST-P1-1 (Homo sapiens, UniProt P09211); assay: GST sensing: fluorescence response to GST-P1-1; format: binding; conditions: 100 nM sensor
T2 construct: purchased Oxford Biomedical Research (a second source is given: Israel Structural Proteomics Center, recombinant)
Procedure: as §1, §2

[6] = target: T3, GST-A1-1 (Homo sapiens, UniProt P08263); assay: GST sensing: fluorescence response to GST-A1-1; format: binding; conditions: 100 nM sensor, 90 nM isozyme
T3 construct: purchased Oxford Biomedical Research (a second source is given: Israel Structural Proteomics Center, recombinant)
T3 sequence (P08263 2-222 limits assumed): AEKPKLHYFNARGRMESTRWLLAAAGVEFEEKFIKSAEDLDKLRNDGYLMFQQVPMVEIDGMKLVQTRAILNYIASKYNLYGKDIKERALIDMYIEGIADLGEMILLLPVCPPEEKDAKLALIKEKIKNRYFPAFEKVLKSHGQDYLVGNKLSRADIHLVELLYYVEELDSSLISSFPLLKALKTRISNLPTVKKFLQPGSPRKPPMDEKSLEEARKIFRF
Procedure: as §1, §2

[7] = target: T4, GST-A2-2 (Homo sapiens, UniProt P09210); assay: GST sensing: fluorescence response to GST-A2-2; format: binding; conditions: 100 nM sensor, 90 nM isozyme
T4 construct: purchased Oxford Biomedical Research (a second source is given: Israel Structural Proteomics Center, recombinant)
T4 sequence (P09210 2-222 limits assumed): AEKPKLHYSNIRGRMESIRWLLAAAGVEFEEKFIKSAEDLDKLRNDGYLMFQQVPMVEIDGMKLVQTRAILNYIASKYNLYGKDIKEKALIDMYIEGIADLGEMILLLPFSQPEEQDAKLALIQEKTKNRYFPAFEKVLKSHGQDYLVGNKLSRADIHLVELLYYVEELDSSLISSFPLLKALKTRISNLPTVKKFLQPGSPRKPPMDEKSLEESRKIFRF
Procedure: as §1, §2

[8] = target: T2, GST-P1-1; assay: Fluorescence binding study, dissociation constant with GST-P1-1; conditions: fluorescence titration, phosphate buffer 5 mM pH 6.5; read-out: approximate dissociation constant Kd, GST-P1-1
Procedure: The approximate dissociation constants were determined for GST-M1-1 and GST-P1-1. For these experiments, the concentration of the sensor was chosen according to the enzymatic assays (Ki values, FIG. 18, 19). It was chosen to be lower than the Ki (expected Kd), but such that would also generate a detectable and reproducible emission signal in the plate reader. […] The data were analyzed using Graphpad Prism 6.0 and fitted to the equation: Y=Bmax·X/(kd+X) where Bmax is the maximum binding and X is the concentration of protein.

[9] = target: T2, GST-P1-1; assay: GST kinetic measurements and inhibitory constants (CDNB/GSH), GST-P1-1; format: biochemical; conditions: Morrison fit; GSH 3 mM, CDNB 1.5 mM; read-out: approximate inhibition constant Ki, GST-P1-1
Procedure: (§3) (FIGS. 16- and 19). The concentrations of different GSTs, GSH, and CDNB were 20 nM, 350 μM, and 700 μM, respectively. The GST activity was measured spectrophotometrically using chloro-2,4-dinitrobenzene (CDNB) and GSH as substrates, in phosphate buffer (10 mM, pH 6.5). In a typical experiment, GST and sensors 14 or 140 were incubated for 10 min at 25° C. and then GSH and CDNB were subsequently added. The formation of S-(2,4-dinitrophenyl)-glutathione was monitored using the microplate reader at λ=340 nm. […] The concentrations of GSH and CDNB were 3 mM and 1.5 mM, respectively. The Km values were determined using 20 nM of each GST isoform, 3 mM GSH, and variable CDNB concentrations (50 μM-2 mM). Data were fit to the Michaelis-Menten equation using Sigmaplot version 12.0 statistical software (Systat) to obtain the Km values.
(§4) The data were analyzed using Graphpad Prism 6.0 and fitted to the Morrison equation for tight binding substrates (FIG. 18 and FIG. 19(b,c)).
(§5) [formula] where Y is the enzyme activity, X is different concentrations of inhibitor (compound 14 or 140), E is the enzyme concentration, S is the concentration of substrate, Km is the Michaelis-Menten constant determined in an experiment without inhibitor, and V0 is the initial velocity.

[10] = target: T4, GST-A2-2; assay: GST kinetic measurements and inhibitory constants (CDNB/GSH), GST-A2-2; format: biochemical; conditions: Morrison fit; GSH 3 mM, CDNB 1.5 mM; read-out: approximate inhibition constant Ki, GST-A2-2
Procedure: as §3, §4, §5

[11] = target: avidin (Av) (Gallus gallus, UniProt P02701); assay: Av sensing: fluorescence response of TOPI sensors; format: binding; conditions: 100 nM sensor, 90 nM Av; for enhancement in fluorescence emission upon addition of Av: phosphate buffer 15 mM pH 7.3
Procedure: as §1
(§6) Fluorescence values were recorded immediately after addition of the proteins (FIGS. 12d and 13b).

[12] = target: streptavidin (SAv) (Streptomyces avidinii, UniProt P22629); assay: SAv sensing: fluorescence response of TOPI sensors; format: binding; conditions: 100 nM sensor, 90 nM SAv
Procedure: as §1, §6

[13] = target: T5, AChE (Tetronarce californica, UniProt P04058); assay: AChE sensing: fluorescence response of TOPI sensors; format: binding; conditions: 100 nM sensor, 90 nM AChE
T5 construct: gift from Prof; Israel Silman Lab (Weizmann Institute of Science)
Procedure: Fluorescence values were recorded immediately after addition of the proteins (FIGS. 12a and 13a).

[14] = target: T5, AChE; assay: AChE kinetic measurements (Ellman method); format: biochemical; conditions: for inhibition of AChE activity: 8 pM AChE, sensor 36 50 nM, sensor 37 2 μM
Procedure: The AChE activity was measured spectrophotometrically using 5,5′-dithiobis(2-nitrobenzoic acid) (DTNB) and acetylthiocholine iodide as substrates, in phosphate buffer (50 mM, pH 8.0). […] The final concentrations of AChE, DTNB, and acetylthiocholine iodide were 8 pM, 0.4 mM, and 0.4 mM, respectively.

[15] = test system: healthy MCF-10A cells; assay: Live cell fluorescence imaging, MCF-10A; format: cell-based; conditions: 2 μM

Sequence of avidin (Av) (P02701 25-152): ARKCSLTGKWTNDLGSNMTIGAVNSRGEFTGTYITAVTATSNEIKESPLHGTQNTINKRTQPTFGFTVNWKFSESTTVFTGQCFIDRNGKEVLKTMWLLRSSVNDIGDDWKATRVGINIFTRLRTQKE
T5 sequence (P04058 22-564): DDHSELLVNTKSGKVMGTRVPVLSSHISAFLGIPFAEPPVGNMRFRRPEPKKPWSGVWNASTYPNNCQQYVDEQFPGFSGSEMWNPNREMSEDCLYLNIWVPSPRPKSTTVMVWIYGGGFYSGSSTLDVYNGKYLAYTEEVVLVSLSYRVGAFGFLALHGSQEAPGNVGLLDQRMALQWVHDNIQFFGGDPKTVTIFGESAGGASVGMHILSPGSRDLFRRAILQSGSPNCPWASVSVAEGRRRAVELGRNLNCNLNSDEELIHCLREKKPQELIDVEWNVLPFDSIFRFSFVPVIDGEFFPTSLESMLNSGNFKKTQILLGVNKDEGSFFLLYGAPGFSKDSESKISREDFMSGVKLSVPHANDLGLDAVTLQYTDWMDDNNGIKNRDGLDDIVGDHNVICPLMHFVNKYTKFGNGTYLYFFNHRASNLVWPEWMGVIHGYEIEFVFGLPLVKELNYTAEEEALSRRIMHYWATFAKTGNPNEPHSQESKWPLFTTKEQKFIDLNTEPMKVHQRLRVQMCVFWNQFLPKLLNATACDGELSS
T2 sequence (P09211 2-210 limits assumed): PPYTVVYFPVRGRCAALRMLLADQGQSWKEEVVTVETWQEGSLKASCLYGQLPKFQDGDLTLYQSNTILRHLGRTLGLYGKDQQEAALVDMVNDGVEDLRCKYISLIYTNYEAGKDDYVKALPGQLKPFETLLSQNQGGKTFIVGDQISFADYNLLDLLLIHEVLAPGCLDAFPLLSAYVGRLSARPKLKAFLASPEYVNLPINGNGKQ
Sequence of streptavidin (SAv) (P22629 25-183): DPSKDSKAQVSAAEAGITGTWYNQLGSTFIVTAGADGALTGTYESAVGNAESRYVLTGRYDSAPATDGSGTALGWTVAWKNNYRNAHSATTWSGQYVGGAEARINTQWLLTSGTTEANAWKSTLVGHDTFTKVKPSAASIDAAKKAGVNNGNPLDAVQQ

C=C(CC)C(=O)c1ccc(OCC(=O)O)c(Cl)c1Cl [EA, Ethacrynic acid]
displacement of sensor 14 from GST-M1-1 (reduction in emission) [1]: selective identification

CN1C(=Cc2cc[n+](C)c3ccccc23)Sc2ccccc21 [TO, Thiazole Orange, reference compound]
fluorescence response to addition of dsDNA (FIG. 21e) [2]: strong fluorescence signal
localization of fluorescence in live MDA-MB-231 cells [3]: strong green emission mainly from the nucleus

CCCCCCSC[C@H](NC(=O)CC[C@H](N)C(=O)O)C(=O)NCC(=O)O [s-hexyl GSH]
displacement of sensor 14 from GST-M1-1 (reduction in emission) [1]: selective identification

C=C(CC)C(=O)c1ccc(OCC(=O)NCCCn2cc(CNC(=O)OCCCN3C=C/C(=C\c4sc5ccccc5[n+]4CCCOC(=O)NCc4cn(CCCNC(=O)COc5ccc(C(=O)C(=C)CC)c(Cl)c5Cl)nn4)c4ccccc43)nn2)c(Cl)c1Cl [sensor 14]
fluorescence enhancement in the presence of GST-M1-1 ([4]; 90 nM GST-M1-1, phosphate buffer 5 mM pH 6.5, recorded immediately): 55 fold
detection of GST-M1-1 in a mixture of GST isozymes ([4]; GST-M1-1 20 nM plus seven additional GSTs 20 nM each): selective detection of GST-M1-1 in a mixture of isoforms
time course of emission in the presence of GST-P1-1 ([5]; 90 nM GST P1-1, phosphate buffer 5 mM pH 6.5): slowly increased over a period of 2 hours
fluorescence detection of GST-A1-1 [6]: could not be detected
fluorescence detection of GST-A2-2 [7]: could not be detected
Kd [8]: 0.038 µM
Ki [9]: 0.049 µM
Ki [10]: 0.02 µM
fluorescence response to addition of dsDNA (FIG. 21e) [2]: negligible fluorescence responses; also recorded: did not exhibit any change in its fluorescence at 540 nm
change in fluorescence upon addition of dsDNA (Example 3) ([2]; 500 nM TO derivative, 100-900 nM dsDNA, PBS pH 6.5, emission 530 nm): did not exhibit any change in its fluorescence at 530 nm

O=C(CCCCC1SCC2NC(=O)NC21)NCCOCCOCCNC(=O)CCN1C=C/C(=C\c2sc3ccccc3[n+]2CCC(=O)NCCOCCOCCNC(=O)CCCCC2SCC3NC(=O)NC32)c2ccccc21.[I-] (centres unmarked) [sensor 34]
fluorescence response to Av [11]: strongly
enhancement in fluorescence emission upon addition of Av [11]: 16 fold
fluorescence response to SAv [12]: weakly; also recorded: hardly detected
fluorescence response to addition of dsDNA (FIG. 21e) [2]: negligible fluorescence responses

O=C(CCCCC1SCC2NC(=O)NC21)NCCNC(=O)CCN1C=C/C(=C\c2sc3ccccc3[n+]2CCC(=O)NCCNC(=O)CCCCC2SCC3NC(=O)NC32)c2ccccc21.[I-] (centres unmarked) [sensor 35]
fluorescence response to Av [11]: strongly
enhancement in fluorescence emission upon addition of Av [11]: 7 fold
fluorescence response to SAv [12]: weakly; also recorded: hardly detected

O=C(CCN1C=C/C(=C\c2sc3ccccc3[n+]2CCC(=O)NCCCCCCNc2c3c(nc4ccccc24)CCCC3)c2ccccc21)NCCCCCCNc1c2c(nc3ccccc13)CCCC2.[I-] [sensor 36]
detection of AChE [13]: could detect AChE
enhancement in fluorescence emission upon addition of AChE ([13]; phosphate buffer 20 mM pH 8): 22 fold
inhibition of AChE activity [14]: strong bivalent inhibitor; also recorded: full inhibition at low nanomolar concentration
Ki ([14]; competitive inhibition fit, acetylthiocholine iodide substrate, read-out: approximate inhibition constant Ki, AChE): 0.00032 µM and 0.00031 µM

O=C(CCN1C=C/C(=C\c2sc3ccccc3[n+]2CCC(=O)NCCNc2c3c(nc4ccccc24)CCCC3)c2ccccc21)NCCNc1c2c(nc3ccccc13)CCCC2.[I-] [sensor 37]
detection of AChE [13]: could detect AChE
inhibition of AChE activity [14]: inhibited the AChE, activity only at 2 μM

C=C(CC)C(=O)c1ccc(OCC(=O)NCCNC(=O)CCN2C=C/C(=C\c3sc4ccccc4[n+]3CCC(=O)NCCNC(=O)COc3ccc(C(=O)C(=C)CC)c(Cl)c3Cl)c3ccccc32)c(Cl)c1Cl [sensor 140, (E)-3-(3-((2-(2-(2,3-dichloro-4-(2-methylenebutanoyl)phenoxy)acetamido)ethyl)amino)-3-oxopropyl)-2-((1-(3-((2-(2-(2,3-dichloro-4-(2-methylenebutanoyl)phenoxy)acetamido)ethyl)amino)-3-oxopropyl)quinolin-4(1H)-ylidene)methyl)benzoidithiazol-3-ium iodide]
turn-on fluorescence signal in the presence of GST-P1-1 ([5]; 90 nM GST-P1-1, after 30 min incubation): 33 fold
Kd [8]: 0.029 µM
fluorescence response to addition of dsDNA (FIG. 21e) [2]: negligible fluorescence responses
localization of fluorescence in live MDA-MB-231 cells [3]: distributed within the cell
emission signal in MCF-10A cells [15]: much weaker emission signal
